# From patent EP0195841A1, “Quinolinecarboxylic acid derivatives and process for their preparation” (KYORIN PHARMACEUTICAL CO., LTD., priority 1985, dated 1986)
# Assays:
# Assay in all cases: Antibacterial spectra, MIC by standard method of Japan Society of Chemotherapy
# Format in all cases: cell-based
# [1] = tested on: Bacillus subtilis PCI 219; conditions: 10^6 cells/ml
# [2] = tested on: Staphylococcus aureus 209 P; conditions: Gram +, 10^6 cells/ml
# [3] = tested on: S. aureus IID 670 (Terajima); conditions: 10^6 cells/ml
# [4] = tested on: S. epidermidis IID 866; conditions: 10^6 cells/ml
# [5] = tested on: Streptococcus pyogenes IID 692; conditions: 10^6 cells/ml
# [6] = tested on: S. pyogenes IID 689 (S-8); conditions: 10^6 cells/ml
# [7] = tested on: S. faecalis IID 682; conditions: 10^6 cells/ml
# [8] = tested on: S. pneumoniae 2054; conditions: Gram +, 10^6 cells/ml
# [9] = tested on: E. coli NIHJ JC-2
# [10] = tested on: E. coli ATCC 10536; conditions: 10^6 cells/ml
# [11] = tested on: Proteus vulgaris IFO 3167; conditions: Proteus vulgaris IFO 3167, Gram −, 10^6 cells/ml
# [12] = tested on: P. mirabilis IID 994; conditions: 10^6 cells/ml
# [13] = tested on: P. morganii IID 602; conditions: 10^6 cells/ml
# [14] = tested on: Klebsiella pneumoniae KY 6445; conditions: 10^6 cells/ml
# [15] = tested on: Enterobacter cloacae IID 977; conditions: 10^6 cells/ml
# [16] = tested on: Citrobacter freundii IID 976; conditions: 10^6 cells/ml
# [17] = tested on: Serratia marcescens IID 618; conditions: 10^6 cells/ml
# [18] = tested on: Shigella sonnei IID 969; conditions: 10^6 cells/ml
# Description: Experiment 1. Antibacterial spectra
# Antibacterial activity was determined with the standard method recommended by Japan Society of Chemotherapy.
# [19] = tested on: Salmonella enteritidis IID 604; conditions: Gram −, 10^6 cells/ml
# [20] = tested on: Pseudomonas aeruginosa V-1; conditions: 10^6 cells/ml
# [21] = tested on: Pseudomonas aeruginosa IFO 12689; conditions: 10^6 cells/ml
# [22] = tested on: Yersinia enterocolitica IID 981; conditions: 10^6 cells/ml
# [23] = tested on: Acinetobacter anitratus IID 876; conditions: 10^6 cells/ml
# [24] = tested on: Alcaligenes faecalis 0104002; conditions: Gram −, 10^6 cells/ml, read-out: Minimum Inhibitory Concentration
# [25] = tested on: Bacteroides fragilis GM 7000; conditions: 10^6 cells/ml
# [26] = tested on: Bacteroides fragilis 0558; conditions: Gram −, 10^6 cells/ml, read-out: Minimum Inhibitory Concentration
# [27] = tested on: Bacteroides fragilis 25285; conditions: Gram −, 10^6 cells/ml
# [28] = read-out: Minimum Inhibitory Concentration
compound,measurement,setting,value
"CN1CCN(c2c(F)cc3c(=O)c(C(=O)O)cn(C4CC4)c3c2F)CC1 [Reference- 2, 1-Cyclopropyl-6,8-difluoro-1,4-dihydro-7-(4-methyl-1-piperazinyl)-4-oxoquinoline-3-carboxylic acid, reference compound]",ratio of activity per that of Ciprofloxacin (bracketed number),[1]; Gram +,1
same,MIC,"[1]; PCI219, Gram +, read-out: Minimum Inhibitory Concentration",0.05 µg/mL
same,ratio of activity per that of Ciprofloxacin (bracketed number),[2],4
same,MIC,[2]; [28],0.1 µg/mL
same,ratio of activity per that of Ciprofloxacin (bracketed number),[3]; Gram +,2
same,MIC,"[3]; Staphylococcus aureus, IID670, Gram +, read-out: Minimum Inhibitory Concentration",0.2 µg/mL
same,ratio of activity per that of Ciprofloxacin (bracketed number),[4]; Gram +,2
same,MIC,"[4]; Staphylococcus epidermidis, IID866, Gram +, read-out: Minimum Inhibitory Concentration",0.2 µg/mL
same,ratio of activity per that of Ciprofloxacin (bracketed number),[5]; Gram +,1
same,MIC,"[5]; IID692, Gram +, read-out: Minimum Inhibitory Concentration",0.78 µg/mL
same,ratio of activity per that of Ciprofloxacin (bracketed number),[6]; Gram +,0.5
same,MIC,"[6]; Streptococcus pyogenes, IID689, Gram +, read-out: Minimum Inhibitory Concentration",0.78 µg/mL
same,MIC,"[7]; Enterococcus faecalis, IID682, Gram +, read-out: Minimum Inhibitory Concentration",0.78 µg/mL
same,ratio of activity per that of Ciprofloxacin (bracketed number),[7]; Gram +,1
same,ratio of activity per that of Ciprofloxacin (bracketed number),[8],2
same,MIC,"[8]; Streptococcus pneumoniae, read-out: Minimum Inhibitory Concentration",0.78 µg/mL
same,ratio of activity per that of Ciprofloxacin (bracketed number),"[9]; E. coli NIHJ JC-2, Gram −, 10^6 cells/ml",0.5
same,MIC,"[9]; Escherichia coli, NIHJJC2, read-out: Minimum Inhibitory Concentration",0.0125 µg/mL
same,MIC,"[10]; Escherichia coli, ATCC10536, Gram −, read-out: Minimum Inhibitory Concentration",0.0125 µg/mL
same,ratio of activity per that of Ciprofloxacin (bracketed number),[10]; Gram −,1
same,MIC,"[11]; IFO3167, read-out: Minimum Inhibitory Concentration",0.025 µg/mL
same,ratio of activity per that of Ciprofloxacin (bracketed number),[11],0.25
same,ratio of activity per that of Ciprofloxacin (bracketed number),[12]; Gram −,0.5
same,MIC,"[12]; Proteus mirabilis, IID994, Gram −, read-out: Minimum Inhibitory Concentration",0.025 µg/mL
same,ratio of activity per that of Ciprofloxacin (bracketed number),[13]; Gram −,1
same,MIC,"[13]; Morganella morganii, IID602, Gram −, read-out: Minimum Inhibitory Concentration",0.05 µg/mL
same,ratio of activity per that of Ciprofloxacin (bracketed number),[14]; Gram −,1
same,MIC,"[14]; KY6445, Gram −, read-out: Minimum Inhibitory Concentration",0.0125 µg/mL
same,ratio of activity per that of Ciprofloxacin (bracketed number),[15]; Gram −,1
same,MIC,"[15]; IID977, Gram −, read-out: Minimum Inhibitory Concentration",0.05 µg/mL
same,ratio of activity per that of Ciprofloxacin (bracketed number),[16]; Gram −,0.25
same,MIC,"[16]; IID976, Gram −, read-out: Minimum Inhibitory Concentration",0.025 µg/mL
same,ratio of activity per that of Ciprofloxacin (bracketed number),[17]; Gram −,1
same,MIC,"[17]; IID618, Gram −, read-out: Minimum Inhibitory Concentration",0.39 µg/mL
same,ratio of activity per that of Ciprofloxacin (bracketed number),[18]; Gram −,0.5
same,MIC,"[18]; IID969, Gram −, read-out: Minimum Inhibitory Concentration",0.0125 µg/mL
same,ratio of activity per that of Ciprofloxacin (bracketed number),[19],0.5
same,MIC,"[19]; Salmonella enterica, read-out: Minimum Inhibitory Concentration",0.05 µg/mL
same,ratio of activity per that of Ciprofloxacin (bracketed number),[20]; Gram −,0.5
same,MIC,"[20]; V1, Gram −, read-out: Minimum Inhibitory Concentration",0.39 µg/mL
same,ratio of activity per that of Ciprofloxacin (bracketed number),[21]; Gram −,1
same,MIC,"[21]; IFO12689, Gram −, read-out: Minimum Inhibitory Concentration",0.39 µg/mL
same,ratio of activity per that of Ciprofloxacin (bracketed number),[22]; Gram −,1
same,MIC,"[22]; IID981, Gram −, read-out: Minimum Inhibitory Concentration",0.05 µg/mL
same,MIC,"[23]; Acinetobacter calcoaceticus, IID876, Gram −, read-out: Minimum Inhibitory Concentration",0.0125 µg/mL
same,ratio of activity per that of Ciprofloxacin (bracketed number),[23]; Gram −,2
same,MIC,[24],0.02 µg/mL
same,MIC,"[25]; GM7000, Gram −, read-out: Minimum Inhibitory Concentration",0.78 µg/mL
same,ratio of activity per that of Ciprofloxacin (bracketed number),[25]; Gram −,4
same,MIC,[26],0.39 µg/mL
same,ratio of activity per that of Ciprofloxacin (bracketed number),[27],8
same,MIC,[27]; [28],0.39 µg/mL
